The target of experiment [1] is T1, Muscle, skeletal receptor tyrosine-protein kinase (Homo sapiens) (UniProt O15146).
T1 sequence (whole entry): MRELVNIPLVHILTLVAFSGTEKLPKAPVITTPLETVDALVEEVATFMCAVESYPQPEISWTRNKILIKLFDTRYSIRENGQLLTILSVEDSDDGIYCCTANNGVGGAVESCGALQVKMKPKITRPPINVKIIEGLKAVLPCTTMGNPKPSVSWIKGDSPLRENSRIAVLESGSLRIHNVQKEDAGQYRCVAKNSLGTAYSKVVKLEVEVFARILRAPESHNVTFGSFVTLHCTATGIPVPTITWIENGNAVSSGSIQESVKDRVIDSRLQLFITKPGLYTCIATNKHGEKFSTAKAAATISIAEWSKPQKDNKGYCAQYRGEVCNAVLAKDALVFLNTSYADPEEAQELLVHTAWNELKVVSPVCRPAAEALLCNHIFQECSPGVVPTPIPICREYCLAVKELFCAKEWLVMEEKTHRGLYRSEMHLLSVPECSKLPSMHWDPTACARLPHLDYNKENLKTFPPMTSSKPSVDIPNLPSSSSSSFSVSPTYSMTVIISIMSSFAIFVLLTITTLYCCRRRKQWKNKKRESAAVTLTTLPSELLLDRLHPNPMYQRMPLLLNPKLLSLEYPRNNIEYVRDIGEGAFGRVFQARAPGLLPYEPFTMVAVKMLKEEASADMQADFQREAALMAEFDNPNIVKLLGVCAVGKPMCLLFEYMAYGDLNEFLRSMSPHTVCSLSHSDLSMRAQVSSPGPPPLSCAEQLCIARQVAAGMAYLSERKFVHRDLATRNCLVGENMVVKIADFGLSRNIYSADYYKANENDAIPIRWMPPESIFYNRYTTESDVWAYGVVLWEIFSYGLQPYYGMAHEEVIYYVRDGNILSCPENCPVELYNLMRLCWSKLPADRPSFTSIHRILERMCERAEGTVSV
In words: Selectivity interaction (Upstate Kinase Profiler service (Millipore)) EUB0000056c MUSK. Conditions: at 1 µM.

Experiment [2] concerns the target T2, Ephrin type-B receptor 4 (Homo sapiens) (UniProt P54760).
T2 sequence (whole entry): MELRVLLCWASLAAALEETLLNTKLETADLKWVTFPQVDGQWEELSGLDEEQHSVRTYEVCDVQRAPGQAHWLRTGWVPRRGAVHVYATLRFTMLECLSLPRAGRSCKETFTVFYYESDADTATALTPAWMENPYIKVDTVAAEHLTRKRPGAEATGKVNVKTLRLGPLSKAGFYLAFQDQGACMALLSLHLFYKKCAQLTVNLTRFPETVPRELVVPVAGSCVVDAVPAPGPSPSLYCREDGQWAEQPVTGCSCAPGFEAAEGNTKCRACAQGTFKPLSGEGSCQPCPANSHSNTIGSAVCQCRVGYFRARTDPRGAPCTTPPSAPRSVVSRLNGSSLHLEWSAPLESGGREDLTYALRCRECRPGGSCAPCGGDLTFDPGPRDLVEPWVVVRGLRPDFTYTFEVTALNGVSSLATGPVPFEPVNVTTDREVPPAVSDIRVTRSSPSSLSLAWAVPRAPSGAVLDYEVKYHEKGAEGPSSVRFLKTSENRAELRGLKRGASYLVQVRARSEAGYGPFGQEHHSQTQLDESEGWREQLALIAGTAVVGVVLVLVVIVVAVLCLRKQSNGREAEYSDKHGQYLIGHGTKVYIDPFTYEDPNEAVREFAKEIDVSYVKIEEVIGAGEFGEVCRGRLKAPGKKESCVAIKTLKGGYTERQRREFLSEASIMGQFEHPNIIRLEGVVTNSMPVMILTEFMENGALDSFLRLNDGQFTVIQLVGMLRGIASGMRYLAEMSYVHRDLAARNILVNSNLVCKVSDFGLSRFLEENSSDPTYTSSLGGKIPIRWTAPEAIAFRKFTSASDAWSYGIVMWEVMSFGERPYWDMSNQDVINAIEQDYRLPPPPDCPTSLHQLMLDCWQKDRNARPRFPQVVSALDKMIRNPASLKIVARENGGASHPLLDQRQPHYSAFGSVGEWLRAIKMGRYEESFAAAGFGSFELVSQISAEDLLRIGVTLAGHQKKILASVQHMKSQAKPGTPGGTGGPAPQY
In words: Selectivity interaction (KinomeScan (DiscoverX)) EUB0000655a EPHB4. Conditions: at 10 µM.

Experiment [3] deals with Glycogen synthase kinase-3 beta (Homo sapiens, UniProt P49841). In words: Selectivity interaction (KinomeScan (DiscoverX)) EUB0000655a GSK3B. Conditions: at 10 µM.
Glycogen synthase kinase-3 beta, sequence (P49841 whole entry, looked up): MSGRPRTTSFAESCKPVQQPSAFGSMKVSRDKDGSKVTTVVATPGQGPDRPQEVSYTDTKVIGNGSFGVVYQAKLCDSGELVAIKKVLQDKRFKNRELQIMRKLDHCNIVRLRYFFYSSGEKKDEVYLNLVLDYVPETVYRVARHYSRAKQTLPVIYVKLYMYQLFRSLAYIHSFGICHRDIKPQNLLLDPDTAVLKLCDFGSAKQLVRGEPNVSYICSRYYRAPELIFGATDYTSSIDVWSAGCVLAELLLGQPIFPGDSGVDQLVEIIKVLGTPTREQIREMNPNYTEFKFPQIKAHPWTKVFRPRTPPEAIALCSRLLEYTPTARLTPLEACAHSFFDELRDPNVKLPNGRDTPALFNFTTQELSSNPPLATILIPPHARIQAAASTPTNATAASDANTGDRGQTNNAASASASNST
Experiment [4] addresses Serine/threonine-protein kinase 26 (Homo sapiens, UniProt Q9P289). In words: Selectivity interaction (KinomeScan (DiscoverX)) EUB0000655a STK26. Conditions: at 10 µM.
Experiment [5] concerns the target Mast/stem cell growth factor receptor Kit (Homo sapiens, UniProt P10721). In words: Selectivity interaction (Kinase screening (Nanosyn)) EUB0000604a KIT.
The next experiment deals with Activated CDC42 kinase 1 (Homo sapiens, UniProt Q07912). Kind of experiment: Selectivity interaction (Kinase panel (Carna Biosciences)) EUB0001542aTs TNK2. Conditions: at 1 µM.
Activated CDC42 kinase 1, sequence (Q07912 whole entry, looked up): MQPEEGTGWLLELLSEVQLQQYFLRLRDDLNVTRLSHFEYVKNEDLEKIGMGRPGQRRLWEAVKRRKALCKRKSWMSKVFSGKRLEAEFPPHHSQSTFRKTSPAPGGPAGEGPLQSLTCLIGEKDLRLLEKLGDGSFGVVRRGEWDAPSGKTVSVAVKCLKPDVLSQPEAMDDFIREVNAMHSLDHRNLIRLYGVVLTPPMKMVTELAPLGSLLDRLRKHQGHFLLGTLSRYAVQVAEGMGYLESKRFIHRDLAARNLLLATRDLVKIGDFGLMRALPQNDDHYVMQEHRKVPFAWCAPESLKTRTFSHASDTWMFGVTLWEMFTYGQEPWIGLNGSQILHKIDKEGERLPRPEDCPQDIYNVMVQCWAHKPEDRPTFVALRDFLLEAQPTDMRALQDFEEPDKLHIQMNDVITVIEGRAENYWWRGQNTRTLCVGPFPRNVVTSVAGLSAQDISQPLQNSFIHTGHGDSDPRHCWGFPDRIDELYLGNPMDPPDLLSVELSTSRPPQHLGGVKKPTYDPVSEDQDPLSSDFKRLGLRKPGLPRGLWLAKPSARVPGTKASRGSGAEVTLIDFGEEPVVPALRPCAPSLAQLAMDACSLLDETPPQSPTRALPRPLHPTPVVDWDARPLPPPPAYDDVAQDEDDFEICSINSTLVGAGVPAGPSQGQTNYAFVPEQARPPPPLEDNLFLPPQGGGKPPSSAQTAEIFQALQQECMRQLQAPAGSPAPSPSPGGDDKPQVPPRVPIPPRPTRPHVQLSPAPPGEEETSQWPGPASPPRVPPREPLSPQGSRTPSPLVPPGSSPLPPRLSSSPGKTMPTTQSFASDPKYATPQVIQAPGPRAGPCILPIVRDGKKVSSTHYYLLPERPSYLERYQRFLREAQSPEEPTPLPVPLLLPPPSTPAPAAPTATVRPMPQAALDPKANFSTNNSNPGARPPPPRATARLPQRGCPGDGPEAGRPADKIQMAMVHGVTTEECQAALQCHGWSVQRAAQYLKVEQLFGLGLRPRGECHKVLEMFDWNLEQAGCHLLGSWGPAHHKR
The target of experiment [6] is Dual specificity tyrosine-phosphorylation-regulated kinase 1B (Homo sapiens, UniProt Q9Y463). In words: Selectivity interaction (SelectScreen profiling (Invitrogen)) EUB0000607a DYRK1B. Conditions: at 2 µM.
Dual specificity tyrosine-phosphorylation-regulated kinase 1B, sequence (Q9Y463 whole entry, looked up): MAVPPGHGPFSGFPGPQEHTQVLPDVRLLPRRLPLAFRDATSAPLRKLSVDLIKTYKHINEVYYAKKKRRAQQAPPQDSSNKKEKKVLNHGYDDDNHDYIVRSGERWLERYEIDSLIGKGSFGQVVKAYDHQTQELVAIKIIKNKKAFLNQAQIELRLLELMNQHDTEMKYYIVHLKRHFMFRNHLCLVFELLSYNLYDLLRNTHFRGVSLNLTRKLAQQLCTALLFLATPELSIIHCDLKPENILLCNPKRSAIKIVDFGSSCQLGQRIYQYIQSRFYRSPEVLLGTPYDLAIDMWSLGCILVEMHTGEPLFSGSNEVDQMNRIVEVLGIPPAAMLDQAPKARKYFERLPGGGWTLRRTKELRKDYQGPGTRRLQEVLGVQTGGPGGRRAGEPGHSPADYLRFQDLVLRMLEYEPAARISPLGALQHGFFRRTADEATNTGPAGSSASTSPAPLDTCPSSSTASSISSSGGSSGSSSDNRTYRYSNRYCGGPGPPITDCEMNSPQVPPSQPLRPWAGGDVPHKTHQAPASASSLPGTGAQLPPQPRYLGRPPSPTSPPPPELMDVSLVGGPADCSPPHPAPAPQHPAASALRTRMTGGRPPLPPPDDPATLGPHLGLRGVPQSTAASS
The target in experiment [7] is MAP/microtubule affinity-regulating kinase 3 (Homo sapiens) (UniProt P27448). In words: Selectivity interaction (Kinase panel (Invitrogen)) EUB0000639a MARK3. Conditions: at 200 nM.
MAP/microtubule affinity-regulating kinase 3 (Homo sapiens), sequence (P27448 whole entry, looked up): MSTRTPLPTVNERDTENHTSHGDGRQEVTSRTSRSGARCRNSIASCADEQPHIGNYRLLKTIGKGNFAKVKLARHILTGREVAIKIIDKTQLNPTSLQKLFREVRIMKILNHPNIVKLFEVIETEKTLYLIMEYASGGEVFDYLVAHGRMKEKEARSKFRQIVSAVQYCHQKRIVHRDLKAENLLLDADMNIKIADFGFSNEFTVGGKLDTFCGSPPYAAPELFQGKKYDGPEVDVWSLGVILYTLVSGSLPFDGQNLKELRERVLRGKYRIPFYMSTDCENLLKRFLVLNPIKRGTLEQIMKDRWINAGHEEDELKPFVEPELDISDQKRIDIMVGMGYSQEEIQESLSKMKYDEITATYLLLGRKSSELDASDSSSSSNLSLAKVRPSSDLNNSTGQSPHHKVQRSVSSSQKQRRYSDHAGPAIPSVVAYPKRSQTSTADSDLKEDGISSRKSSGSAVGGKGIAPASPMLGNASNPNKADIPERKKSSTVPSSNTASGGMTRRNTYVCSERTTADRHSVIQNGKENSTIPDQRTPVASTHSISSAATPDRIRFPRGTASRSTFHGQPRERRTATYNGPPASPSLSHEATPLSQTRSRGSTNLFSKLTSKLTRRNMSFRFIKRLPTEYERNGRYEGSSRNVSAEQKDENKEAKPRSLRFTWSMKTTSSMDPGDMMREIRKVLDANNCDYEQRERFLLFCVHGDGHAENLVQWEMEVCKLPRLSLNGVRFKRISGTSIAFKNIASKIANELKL
Experiment [8] deals with Serine/threonine-protein kinase SIK2 (Homo sapiens) (UniProt Q9H0K1). Conditions: at 10 µM.
The target in experiment [9] is T3, Serine/threonine-protein kinase 3 (Homo sapiens) (UniProt Q13188).
T3 sequence (whole entry): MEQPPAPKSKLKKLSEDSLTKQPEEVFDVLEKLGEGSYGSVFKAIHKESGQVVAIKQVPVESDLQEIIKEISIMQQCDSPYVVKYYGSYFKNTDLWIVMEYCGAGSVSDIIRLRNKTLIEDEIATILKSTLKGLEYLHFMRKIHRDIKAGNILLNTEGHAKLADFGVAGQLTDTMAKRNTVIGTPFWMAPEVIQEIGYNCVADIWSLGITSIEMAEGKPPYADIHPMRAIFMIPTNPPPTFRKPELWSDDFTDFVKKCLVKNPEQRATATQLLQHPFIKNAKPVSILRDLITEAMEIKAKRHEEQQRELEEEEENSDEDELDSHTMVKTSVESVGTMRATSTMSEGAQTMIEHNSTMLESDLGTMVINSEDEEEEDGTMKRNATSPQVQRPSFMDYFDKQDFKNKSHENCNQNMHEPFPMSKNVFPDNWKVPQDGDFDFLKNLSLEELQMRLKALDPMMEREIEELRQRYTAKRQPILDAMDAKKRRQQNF
In words: Selectivity interaction (KinomeScan (DiscoverX)) EUB0001619a STK3. The conditions noted are these: at 1 µM.

Mast/stem cell growth factor receptor Kit, sequence (P10721 whole entry): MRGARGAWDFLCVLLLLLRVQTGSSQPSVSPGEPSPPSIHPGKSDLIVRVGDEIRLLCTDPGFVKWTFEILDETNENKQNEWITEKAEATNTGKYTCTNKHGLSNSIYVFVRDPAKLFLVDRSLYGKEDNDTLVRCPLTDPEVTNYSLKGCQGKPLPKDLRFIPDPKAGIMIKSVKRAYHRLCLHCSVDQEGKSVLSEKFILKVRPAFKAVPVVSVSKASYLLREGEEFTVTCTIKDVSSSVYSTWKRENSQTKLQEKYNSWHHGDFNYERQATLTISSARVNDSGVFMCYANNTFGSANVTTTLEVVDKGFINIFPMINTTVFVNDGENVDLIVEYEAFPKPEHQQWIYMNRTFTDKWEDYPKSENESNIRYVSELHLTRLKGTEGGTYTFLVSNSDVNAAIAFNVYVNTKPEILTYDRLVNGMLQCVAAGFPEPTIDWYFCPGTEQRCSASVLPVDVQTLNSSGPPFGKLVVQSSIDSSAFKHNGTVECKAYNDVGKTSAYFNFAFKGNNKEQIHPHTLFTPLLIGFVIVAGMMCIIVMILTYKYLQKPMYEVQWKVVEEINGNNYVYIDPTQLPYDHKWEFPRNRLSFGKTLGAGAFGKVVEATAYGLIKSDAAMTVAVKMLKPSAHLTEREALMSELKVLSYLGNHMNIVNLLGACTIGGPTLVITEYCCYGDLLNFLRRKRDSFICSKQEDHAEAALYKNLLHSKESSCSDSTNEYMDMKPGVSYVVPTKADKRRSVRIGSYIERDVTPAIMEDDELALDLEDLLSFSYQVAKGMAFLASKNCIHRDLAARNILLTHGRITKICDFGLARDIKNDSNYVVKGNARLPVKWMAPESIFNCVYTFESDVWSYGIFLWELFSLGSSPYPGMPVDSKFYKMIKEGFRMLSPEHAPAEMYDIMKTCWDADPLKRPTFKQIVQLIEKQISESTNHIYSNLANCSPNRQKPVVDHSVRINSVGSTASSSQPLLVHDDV
Serine/threonine-protein kinase 26, sequence (Q9P289 2-416 limits assumed): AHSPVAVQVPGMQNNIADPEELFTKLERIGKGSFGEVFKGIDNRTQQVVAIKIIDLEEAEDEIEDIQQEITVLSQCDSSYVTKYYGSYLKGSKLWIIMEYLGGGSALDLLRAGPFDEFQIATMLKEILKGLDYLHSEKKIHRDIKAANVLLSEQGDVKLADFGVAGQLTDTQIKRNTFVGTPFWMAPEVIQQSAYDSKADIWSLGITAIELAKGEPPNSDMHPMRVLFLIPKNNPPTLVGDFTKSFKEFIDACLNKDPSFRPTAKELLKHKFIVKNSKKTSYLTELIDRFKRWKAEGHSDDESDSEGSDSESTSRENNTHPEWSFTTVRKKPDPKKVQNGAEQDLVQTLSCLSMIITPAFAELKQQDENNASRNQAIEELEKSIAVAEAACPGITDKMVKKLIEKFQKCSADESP

For `Cc1ccc(-c2ccc3c(ccc4sc5c(c43)NC[C@@H](C)NC5=O)n2)cn1`, the % of inhibition in experiment [1] is -7%.
For the compound `CN(C)CCOc1ccc(-c2nc(-c3ccncc3)c(-c3ccc4c(c3)CC/C4=N\O)[nH]2)cc1`, the % of control in experiment [2] worked out at 100%; in [3], 81%; in [4], 91%.
As for `Cc1cnc(Nc2ccc(F)cc2Cl)nc1-c1c[nH]c(C(=O)N[C@H](CO)c2cccc(Cl)c2)c1`, in experiment [5], the % of inhibition amounted to 8%.
Turning to `Cn1cc(Nc2nccc(N3CC4CCC(C3)N4C(=O)[C@@H]3CC3(F)F)n2)cn1`, the % of inhibition on Activated CDC42 kinase 1 was determined as 82%.
Consider `CNC(=O)Nc1ccc(-c2nc(N3CC4CCC(C3)O4)c3cnn(C4CCC5(CC4)OCCO5)c3n2)cc1`, for which the % of inhibition in experiment [6] was determined as 2%.
Take `CC[C@@H]1[C@H](F)C(=O)N[C@@H]1COc1nccc2cc(C(N)=O)c(OC)cc12` [ZIMLOVISERTIB]: the % of inhibition in experiment [7] was 12.4%.
For the compound `COCC(=O)NC/C=C/c1ccc2ncnc(Nc3ccc(Oc4ccc(C)nc4)c(C)c3)c2c1` [CP-724714], the % of control in experiment [8] was 84%.
For the compound `N#Cc1cccc(-c2c[nH]c3ncnc(N4CCOCC4)c23)c1`, the % of control in experiment [9] was 1.8%.

Source of the values: ChEMBL document CHEMBL5465560, “Selectivity Literature for EUbOPEN Chemogenomic Library” (2024).
